# Non-standard residues stand in square brackets, D forms with d. Residues, ends and D or L forms follow the SMILES beside them. *: point of attachment. Palmitoyl = CCCCCCCCCCCCCCCC(=O)*; Dap = NC[C@H](N)C(=O)O
# Key:
# [1] = target: T1, Palmitoyl-protein thioesterase 1 (Homo sapiens, UniProt P50897); experiment: Inhibition of PPT1 (unknown origin) in cell lysates using fluorescent-based MUGSP as substrate after 1 to 3 hrs
# T1 sequence (P50897 whole entry): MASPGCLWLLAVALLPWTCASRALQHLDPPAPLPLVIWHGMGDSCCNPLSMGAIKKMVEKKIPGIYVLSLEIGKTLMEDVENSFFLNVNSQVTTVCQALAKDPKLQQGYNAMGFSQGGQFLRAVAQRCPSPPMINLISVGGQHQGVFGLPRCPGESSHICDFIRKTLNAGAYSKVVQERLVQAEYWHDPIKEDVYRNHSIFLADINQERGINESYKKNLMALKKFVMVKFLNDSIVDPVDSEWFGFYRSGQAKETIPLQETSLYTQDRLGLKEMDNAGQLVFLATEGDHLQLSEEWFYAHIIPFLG
# Homo sapiens [2] = species: Homo sapiens; experiment: Induction of beta-hexosaminidase S activity in fibroblasts derived from ISD patient at 100 uM after 5 days by Western blotting analysis relative to control
# Beta-glucosidase = target: T2, Beta-glucosidase (Homo sapiens, UniProt Q9HCG7); experiment: Inhibition of beta glucosidase (unknown origin)
# T2 sequence (Q9HCG7 whole entry): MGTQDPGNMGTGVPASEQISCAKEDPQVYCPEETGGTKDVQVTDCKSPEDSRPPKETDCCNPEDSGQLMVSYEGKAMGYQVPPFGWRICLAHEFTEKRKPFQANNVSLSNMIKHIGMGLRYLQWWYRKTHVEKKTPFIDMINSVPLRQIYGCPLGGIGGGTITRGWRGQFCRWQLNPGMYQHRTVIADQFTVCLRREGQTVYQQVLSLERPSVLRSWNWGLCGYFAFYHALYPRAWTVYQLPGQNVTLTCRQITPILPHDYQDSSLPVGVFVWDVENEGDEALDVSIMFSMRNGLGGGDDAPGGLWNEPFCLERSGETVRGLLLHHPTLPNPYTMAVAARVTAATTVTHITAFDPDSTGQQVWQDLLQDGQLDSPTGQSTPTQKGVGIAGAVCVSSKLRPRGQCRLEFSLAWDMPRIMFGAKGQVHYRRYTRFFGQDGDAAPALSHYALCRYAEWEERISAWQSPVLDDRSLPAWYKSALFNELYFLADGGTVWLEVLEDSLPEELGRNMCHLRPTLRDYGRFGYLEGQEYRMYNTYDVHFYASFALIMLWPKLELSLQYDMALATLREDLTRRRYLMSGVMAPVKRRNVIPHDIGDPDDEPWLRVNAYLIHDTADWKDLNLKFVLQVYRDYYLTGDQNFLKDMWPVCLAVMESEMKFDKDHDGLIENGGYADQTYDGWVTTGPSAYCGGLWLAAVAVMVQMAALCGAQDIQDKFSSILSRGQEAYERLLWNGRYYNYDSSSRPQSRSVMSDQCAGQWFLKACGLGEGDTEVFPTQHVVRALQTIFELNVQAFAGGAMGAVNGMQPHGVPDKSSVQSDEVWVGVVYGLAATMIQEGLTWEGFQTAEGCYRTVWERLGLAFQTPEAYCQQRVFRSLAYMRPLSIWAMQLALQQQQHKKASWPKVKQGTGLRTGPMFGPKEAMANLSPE
# Homo sapiens [3] = species: Homo sapiens; experiment: Induction of beta hexosaminidase activity in patient derived cell-line at 50 uM relative to control
# [4] = Non competitive inhibition of beta hexosaminidase (unknown origin); parameters: species or system Homo sapiens
# [5] = test system: T3, Lysosomal acid glucosylceramidase (Homo sapiens), P04062 [N409S]; experiment: Induction of beta glucosidase N370S mutant activity in lymphoblast derived from Gaucher disease patient at 5 uM after 3 days relative to control
# T3 sequence (whole entry): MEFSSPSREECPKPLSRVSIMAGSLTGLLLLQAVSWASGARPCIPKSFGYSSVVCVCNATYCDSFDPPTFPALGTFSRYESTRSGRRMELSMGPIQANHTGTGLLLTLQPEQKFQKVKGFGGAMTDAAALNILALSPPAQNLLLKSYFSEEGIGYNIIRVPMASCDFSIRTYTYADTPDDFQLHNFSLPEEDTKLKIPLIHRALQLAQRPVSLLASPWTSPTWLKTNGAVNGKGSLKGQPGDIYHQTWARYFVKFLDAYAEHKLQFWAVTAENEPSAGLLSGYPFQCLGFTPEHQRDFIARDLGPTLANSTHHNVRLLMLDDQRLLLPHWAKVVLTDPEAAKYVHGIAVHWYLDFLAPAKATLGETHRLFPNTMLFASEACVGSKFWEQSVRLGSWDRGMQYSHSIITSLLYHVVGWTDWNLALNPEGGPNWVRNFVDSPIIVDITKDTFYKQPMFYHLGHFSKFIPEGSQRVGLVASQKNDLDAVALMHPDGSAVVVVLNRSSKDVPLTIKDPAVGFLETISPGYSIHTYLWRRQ
# Homo sapiens [6] = species: Homo sapiens; experiment: Induction of beta-hexosaminidase S in fibroblasts derived from ISD patient at 10 uM after 5 days by Western blotting analysis relative to control
# [7] = target: Lysosomal acid glucosylceramidase (Homo sapiens) (UniProt P04062); experiment: Binding affinity to beta glucosidase (unknown origin) relative to control
# [8] = test system: T3, Lysosomal acid glucosylceramidase (Homo sapiens), P04062 [N409S]; experiment: Induction of beta glucosidase N370S mutant (unknown origin) at 10 nM relative to control
# Homo sapiens [9] = species: Homo sapiens; experiment: Induction of beta-hexosaminidase S in fibroblasts derived from ISD patient after 5 days by Western blotting analysis relative to control
# Beta-galactosidase = target: T4, Beta-galactosidase (Homo sapiens, UniProt P16278); experiment: Inhibition of human beta galactosidase
# T4 sequence (P16278 whole entry): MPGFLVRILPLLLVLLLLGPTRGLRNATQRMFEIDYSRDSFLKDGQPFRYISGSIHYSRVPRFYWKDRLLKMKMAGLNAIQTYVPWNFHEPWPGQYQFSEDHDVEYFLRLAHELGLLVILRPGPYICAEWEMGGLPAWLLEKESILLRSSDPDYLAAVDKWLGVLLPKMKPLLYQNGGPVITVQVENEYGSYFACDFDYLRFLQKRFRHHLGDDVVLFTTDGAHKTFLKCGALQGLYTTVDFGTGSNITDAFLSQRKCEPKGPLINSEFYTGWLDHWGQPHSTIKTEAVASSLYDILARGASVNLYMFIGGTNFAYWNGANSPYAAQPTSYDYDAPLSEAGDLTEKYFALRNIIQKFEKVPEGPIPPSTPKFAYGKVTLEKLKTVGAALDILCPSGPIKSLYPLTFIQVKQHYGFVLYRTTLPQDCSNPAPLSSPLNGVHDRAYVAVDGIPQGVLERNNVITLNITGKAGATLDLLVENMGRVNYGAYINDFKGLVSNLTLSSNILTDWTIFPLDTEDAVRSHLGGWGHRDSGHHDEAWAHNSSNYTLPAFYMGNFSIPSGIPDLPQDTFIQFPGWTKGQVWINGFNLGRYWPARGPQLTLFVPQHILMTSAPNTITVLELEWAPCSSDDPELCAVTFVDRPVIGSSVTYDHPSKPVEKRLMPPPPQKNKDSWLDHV
# Mus musculus [10] = experiment: Induction of human alpha galactosidase A R301Q mutant activity expressed in C57BL/6 transgenic alpha galactosidase A knockout mouse at 3 mg/kg/day, po administered for 2 weeks measured in spleen relative to control; assay type: functional
# Mus musculus [11] = experiment: Induction of human alpha galactosidase A R301Q mutant activity expressed in C57BL/6 transgenic alpha galactosidase A knockout mouse at 3 mg/kg/day, po administered for 2 weeks measured in kidney relative to control; assay type: functional
# Mus musculus [12] = experiment: Induction of in human alpha galactosidase A R301Q mutant activity expressed in C57BL/6 transgenic alpha galactosidase A knockout mouse at 30 mg/kg/day, po administered for 2 weeks measured in kidney relative to control; assay type: functional
# [13] = test system: T5, Alpha-galactosidase A (Homo sapiens), P06280 [R301Q]; experiment: Induction of alpha galactosidase A R301Q mutant activity in lymphoblasts derived from Fabry disease patient at 100 uM after 4 days relative to control
# T5 sequence (whole entry): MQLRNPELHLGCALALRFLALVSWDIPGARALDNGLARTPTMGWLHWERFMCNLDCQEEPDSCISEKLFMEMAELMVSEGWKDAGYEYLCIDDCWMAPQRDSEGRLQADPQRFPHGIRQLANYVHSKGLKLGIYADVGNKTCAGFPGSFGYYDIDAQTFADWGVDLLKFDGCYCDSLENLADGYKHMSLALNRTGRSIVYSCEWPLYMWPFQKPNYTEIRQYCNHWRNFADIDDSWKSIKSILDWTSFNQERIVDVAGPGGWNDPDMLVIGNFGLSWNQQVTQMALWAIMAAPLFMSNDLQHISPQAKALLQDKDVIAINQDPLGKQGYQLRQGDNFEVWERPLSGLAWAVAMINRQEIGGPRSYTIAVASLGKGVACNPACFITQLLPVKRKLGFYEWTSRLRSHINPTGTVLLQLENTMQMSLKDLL
# Mus musculus [14] = experiment: Induction of human alpha galactosidase A R301Q mutant activity expressed in C57BL/6 transgenic alpha galactosidase A knockout mouse at 30 mg/kg/day, po administered for 2 weeks measured in heart relative to control; assay type: functional
# Mus musculus [15] = experiment: Induction of human alpha galactosidase A R301Q mutant activity expressed in C57BL/6 transgenic alpha galactosidase A knockout mouse at 30 mg/kg/day, po administered for 2 weeks measured in spleen relative to control; assay type: functional
# Mus musculus [16] = experiment: Induction of human alpha galactosidase A R301Q mutant activity expressed in C57BL/6 transgenic alpha galactosidase A knockout mouse at 3 mg/kg/day, po administered for 2 weeks measured in heart relative to control; assay type: functional
# Mus musculus [17] = experiment: Induction of human alpha galactosidase A R301Q mutant activity expressed in C57BL/6 transgenic alpha galactosidase A knockout mouse at 30 mg/kg/day, po administered for 2 weeks measured in liver relative to control; assay type: functional
# Mus musculus [18] = experiment: Induction of human alpha galactosidase A R301Q mutant activity expressed in C57BL/6 transgenic alpha galactosidase A knockout mouse at 3 mg/kg/day, po administered for 2 weeks measured in liver relative to control; assay type: functional
# [19] = test system: T3, Lysosomal acid glucosylceramidase (Homo sapiens), P04062 [N409S]; experiment: Induction of beta glucosidase N370S mutant activity in primary skin fibroblast derived from Gaucher disease patient at 20 uM after 5 days relative to control
# Mus musculus [20] = experiment: Induction of beta glucosidase L444P mutant in mouse brain administered with drinking water measured after 4 weeks relative to control; assay type: functional
# [21] = test system: T3, Lysosomal acid glucosylceramidase (Homo sapiens), P04062 [N409S]; experiment: Induction of beta glucosidase N370S mutant activity in cells derived from Gaucher disease patient at 20 uM relative to control
# Homo sapiens [22] = species: Homo sapiens; experiment: Induction of beta glucosidase G202R mutant activity in primary skin fibroblast derived from patient after 5 days relative to control
# [23] = test system: T3, Lysosomal acid glucosylceramidase (Homo sapiens), P04062 [N409S]; experiment: Induction of beta glucosidase N370S mutant activity in primary skin fibroblast derived from Gaucher disease patient after 5 days relative to control
# Chain of Lysosomal acid glucosylceramidase (Homo sapiens) (P04062 whole entry, looked up): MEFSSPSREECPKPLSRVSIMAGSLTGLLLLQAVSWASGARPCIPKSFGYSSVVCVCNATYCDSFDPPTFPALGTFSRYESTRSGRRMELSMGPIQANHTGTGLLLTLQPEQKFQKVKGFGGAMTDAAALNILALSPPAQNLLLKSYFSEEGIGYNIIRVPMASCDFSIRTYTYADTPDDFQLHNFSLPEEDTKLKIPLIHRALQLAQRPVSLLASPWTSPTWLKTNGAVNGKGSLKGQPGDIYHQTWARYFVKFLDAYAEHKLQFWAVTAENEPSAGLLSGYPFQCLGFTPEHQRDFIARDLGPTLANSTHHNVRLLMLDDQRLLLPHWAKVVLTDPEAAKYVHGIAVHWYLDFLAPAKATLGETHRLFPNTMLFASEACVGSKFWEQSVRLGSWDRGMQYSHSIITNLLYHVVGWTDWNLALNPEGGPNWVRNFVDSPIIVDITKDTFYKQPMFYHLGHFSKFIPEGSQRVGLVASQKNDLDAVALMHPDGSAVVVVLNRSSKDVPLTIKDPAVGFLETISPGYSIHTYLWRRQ
smiles,measurement,setting,value
CCCCCCCCCCCCCCCC(=O)NC[C@H](NC(=O)CNC(C)=O)C(=O)N[C@H](C(=O)N[C@@H](CCCCN)C(=O)N[C@H](C(=O)N[C@@H](CCCCN)C(=O)N[C@@H](CCCCN)C(=O)O)[C@@H](C)CC)C(C)C (Ac-G[Dap](Palmitoyl)VKIKK-OH),IC50,[1],10 µM
Cc1[nH]cc2c(=O)n(Cc3ccc(Cl)cc3)ncc12,fold change (FC),Homo sapiens [2],2.5
O[C@H]1[C@H](O)[C@@H](O)CN2CC[C@H](O)[C@H]12 [CASTANOSPERMINE],IC50,Beta-glucosidase,19 µM
CC(=O)N[C@H]1CN(Cc2ccccc2)[C@@H](CO)[C@@H]1O,fold change (FC),Homo sapiens [3],2
same,Ki,[4],2.8 µM
CCCCCCCCC/N=C1/N[C@H]2[C@H](O)[C@@H](O)[C@H](O)[C@@H](O)[C@H]2O1 (racemic),fold change (FC),[5],1.7
O=C1c2cccc3cccc(c23)C(=O)N1CCNCCN1C(=O)c2cccc3cccc(c23)C1=O,fold change (FC),Homo sapiens [6],3
CCCCCCO[C@@H]1CNC[C@H](O)[C@H]1O,fold change (FC),[7],> 100
same,fold change (FC),[8],1.5
O=C1c2ccccc2/C(=N/O)C1[N+](=O)[O-] (stereo not given),fold change (FC),Homo sapiens [9],2
CCCCCCCCN[C@@H]1C=C(CO)[C@H](O)[C@H](O)[C@H]1O,Ki,Beta-galactosidase,0.3 µM
OC[C@H]1NC[C@H](O)[C@@H](O)[C@H]1O,fold change (FC),Mus musculus [10],1.7
same,fold change (FC),Mus musculus [11],2
same,fold change (FC),Mus musculus [12],28
same,fold change (FC),[13],14
same,fold change (FC),Mus musculus [14],18
same,fold change (FC),Mus musculus [15],1.8
same,fold change (FC),Mus musculus [16],4
same,fold change (FC),Mus musculus [17],7.1
same,fold change (FC),Mus musculus [18],3.1
CN(C)c1cccc2c(S(=O)(=O)NCCCCCCN(CCCCCCNS(=O)(=O)c3cccc4c(N(C)C)cccc34)C(=O)CCCCCCN3C[C@H](O)[C@@H](O)[C@H](O)[C@H]3CO)cccc12,fold change (FC),[19],1.6
OC[C@H]1CNC[C@@H](O)[C@@H]1O [AFEGOSTAT],fold change (FC),Mus musculus [20],2
"OC[C@@H]1[C@@H](O)C(O)[C@@H](O)CN1CCCn1cc(COc2ccccc2)nn1 (single isomer, unassigned)",fold change (FC),[21],1.9
O=C(CCCCCN1C[C@H](O)[C@@H](O)[C@H](O)[C@H]1CO)NC12CC3CC(CC(C3)C1)C2,fold change (FC),Homo sapiens [22],2.7
same,fold change (FC),[23],1.4
